According to patent publication US12723023B2, “Ionizable cationic lipids for RNA delivery” (Arcturus Therapeutics, Inc., priority 2021, dated 2026):

Key:
Mouse plasma stability = format: in vitro ADME, CD-1 mouse; conditions: 1 μM lipid
Method: Lipid stock solution was prepared by dissolution of the lipid in isopropanol at the concentration of 5 mg/mL. A requisite volume of the lipid-isopropanol solution was then diluted to 100 μM concentration at a total volume of 1.0 mL with in 50:50 (v/v) ethanol/water. Ten microliters of this 100 μM solution was spiked into 1.0 mL of mouse plasma (BioIVT, Cat. No.: MSE00PLNHUNN, CD-1 mouse, anticoagulant: sodium heparin, not filtered) that was pre-warmed to 37° C. and was stirred at 50 rpm with a magnetic stir bar. The starting concentration of lipids in plasma was thus 1 μM. At time points 0, 15, 30, 45, 60 and 120 min, 0.1 mL of the plasma was withdrawn from the reaction mixture and the protein was precipitated by adding 0.9 mL of ice-cold 4:1 (v/v) acetonitrile/methanol with 1 μg/mL of a selected internal standard lipid added. After filtration through a 0.45 micron 96-well filtering plate, the filtrates were analyzed by LC-MS (Thermo Fisher's Vanquish UHPLC-LTQ XL linear ion trap Mass Spectrometer); Waters XBridge BEH Shield RP18 2.5 micron (2.1×100 mm) column with its matching guard column. Mobile phase A was 0.1% formic acid in water, and mobile phase B was 0.1% formic acid in 1:1 (v/v) acetonitrile/methanol. Flow rate was 0.5 ml/min. Elution gradient was: Time 0-1 min: 10% B; 1-6 min: 10%-95% B; 6-8.5 min: 95% B; 8.5-9 min: 95%-10% B; 9-10 min: 10% B. Mass spectrometry was in positive scanning mode from 600-1100 m/z. The peak of the molecular ion of the lipids was integrated in the extracted ion chromatography (XIC) using Xcalibur software (Thermo Fisher). The relative peak area compared to T=0, after normalization by the peak area of the internal standard, was used as the percentage of the lipid remaining at each time point. T1/2 values were calculated using the first-order decay model.

[1] = In vivo biodegradability assay (lipid concentration in mouse liver by LC-MS); parameters: species or system mice; conditions: BLOQ: below level of quantification; for In vivo degradability (ng tissue) at 48 h 0.1 mpk: Table 1, 0.1 mpk; for In vivo degradability (ng/tissue) at 48 h 0.1 mpk: Table 2, 0.1 mpk
Method: In vivo biodegradability assay was performed to assess the biodegradability of lipids in the LNP. Briefly, mice were injected with either 0.1 or 0.03 mg/Kg dose and after 24 or 48 hours mice livers were collected. To measure the concentration of lipids in the mouse liver, liver samples were homogenized in appropriate buffer in 1-10 dilution and mixed with the same amount of stabilized plasma. The samples were then mixed with organic solvents spiked with internal standard to precipitate proteins. After centrifugation, supernatant was diluted further with organic solvent before sample analysis by LC-MS. In LC-MS analysis, positive electrospray ionization was used, and multiple reaction monitoring (MRM) parameters were set up to specifically target the lipid analyte and internal standard. Calibration standards were prepared in stabilized plasma and mixed with same amount of homogenization buffer before protein precipitation. Quality control samples with known amounts of lipid was prepared in blank liver homogenate to monitor the precision and accuracy of the assay.

Row | Compound | Plasma half life % remaining after 2 h (Mouse plasma stability; Table 1, 37° C.) | Plasma half life % remaining after 2 h (Mouse plasma stability; Table 2, 37° C.) | In vivo degradability (ng/tissue) at 48 h 0.03 mpk ([1]; Table 1, 0.03 mpk) | In vivo degradability (ng tissue) at 48 h 0.1 mpk [1] | In vivo degradability (ng/tissue) at 48 h 0.03 mpk ([1]; Table 2, 0.03 mpk) | In vivo degradability (ng/tissue) at 48 h 0.1 mpk [1]
1 | CN(C)CCCSC(=O)N(CCCC(=O)OC(COC(=O)CCCC1CCCCC1)COC(=O)CCCC1CCCCC1)CCCC(=O)OC(COC(=O)CCCC1CCCCC1)COC(=O)CCCC1CCCCC1 [LIPID 11, ((4,4′-((((3-(Dimethylamino)propyl)thio)carbonyl)azanediyl)bis(butanoyl))bis(oxy))bis(propane-2,1,3-triyl) tetrakis(4-cyclohexylbutanoate)] | 40% | 40% | BLOQ | BLOQ | BLOQ | BLOQ
2 | CN(C)CCCSC(=O)N(CCCCCC(=O)OC(COC(=O)CCC1CCCCC1)COC(=O)CCC1CCCCC1)CCCCCC(=O)OC(COC(=O)CCC1CCCCC1)COC(=O)CCC1CCCCC1 [LIPID 12, ((6,6′-((((3 (dimethylamino)propyl)thio)carbonyl)azanediyl)bis(hexanoyl))bis(oxy))bis(propane-2,1,3-triyl) tetrakis(3-cyclohexylpropanoate)] | 57% | 57% | BLOQ | BLOQ | BLOQ | BLOQ
3 | CCCCCCCCC(=O)OCC(COC(=O)CCCCCCCC)OC(=O)CCN(CCC(=O)OC(COC(=O)CCCCCCCC)COC(=O)CCCCCCCC)C(=O)SCCCN(C)C [LIPID 13] | 74% | 74% | <340 ng/tissue | <340 ng tissue | <340 ng/tissue | <340 ng/tissue
4 | CCCCCCCCC(=O)OCC(COC(=O)CCCCCCCC)COC(=O)CCN(CCC(=O)OCC(COC(=O)CCCCCCCC)COC(=O)CCCCCCCC)C(=O)SCCCN(C)C [LIPID 14] | 116% | 100% | <340 ng/tissue | <340 ng tissue | <340 ng/tissue | <340 ng/tissue
5 | CC1CCC(CC(=O)OCC(COC(=O)CC2CCC(C)CC2)OC(=O)CCCN(CCCC(=O)OC(COC(=O)CC2CCC(C)CC2)COC(=O)CC2CCC(C)CC2)C(=O)SCCCN(C)C)CC1 (centres unmarked) [LIPID 15, ((4,4′-((((3-(dimethylamino)propyl)thio)carbonyl)-azanediyl)bis(butanoyl))bis(oxy))bis(propane-2,1,3-triyl) tetrakis(2-(4-methylcyclohexyl)acetate)] | 256% | 100% | <340 ng/tissue | <340 ng tissue | <340 ng/tissue | <340 ng/tissue
6 | CCCCCCC(C)C(=O)OCC(COC(=O)C(C)CCCCCC)OC(=O)CCCN(CCCC(=O)OC(COC(=O)C(C)CCCCCC)COC(=O)C(C)CCCCCC)C(=O)SCCCN(C)C (centres unmarked) [LIPID 18, ((4,4′-((((3-(Dimethylamino)propyl)thio)carbonyl)-azanediyl)bis(butanoyl))bis(oxy))bis(propane-2,1,3-triyl) tetrakis(2-methyloctanoate)] | 100% | 100% | <340 ng/tissue | 639 ng tissue | <340 ng/tissue | 639 ng/tissue
7 | CCCCCC(C)(C)C(=O)OCC(COC(=O)C(C)(C)CCCCC)OC(=O)CCCN(CCCC(=O)OC(COC(=O)C(C)(C)CCCCC)COC(=O)C(C)(C)CCCCC)C(=O)SCCCN(C)C [LIPID 19, ((4,4′-((((3-(Dimethylamino)propyl)thio)carbonyl)-azanediyl)bis(butanoyl))bis(oxy))bis(propane-2,1,3-triyl) tetrakis(2,2-dimethylheptanoate)] | – | 100% | <340 ng/tissue | 847 ng tissue | <340 ng/tissue | 847 ng/tissue
8 | CC1CCC(CCC(=O)OCC(C)(COC(=O)CCC2CCC(C)CC2)COC(=O)CCN(CCC(=O)OCC(C)(COC(=O)CCC2CCC(C)CC2)COC(=O)CCC2CCC(C)CC2)C(=O)SCCCN(C)C)CC1 (centres unmarked) [LIPID 20] | – | 100% | – | – | <340 ng/tissue | <340 ng/tissue
9 | CC1CCC(CC(=O)OCC(C)(COC(=O)CCN(CCC(=O)OCC(C)(COC(=O)CC2CCC(C)CC2)COC(=O)CC2CCC(C)CC2)C(=O)SCCCN(C)C)COC(=O)CC2CCC(C)CC2)CC1 (centres unmarked) [LIPID 21] | – | 100% | – | – | <340 ng/tissue | <340 ng/tissue
10 | CCC1CCC(C(=O)OCC(C)(COC(=O)CCN(CCC(=O)OCC(C)(COC(=O)C2CCC(CC)CC2)COC(=O)C2CCC(CC)CC2)C(=O)SCCCN(C)C)COC(=O)C2CCC(CC)CC2)CC1 (centres unmarked) [LIPID 22, ((3,3′-((((3-(Dimethylamino)propyl)thio)carbonyl)azanediyl)bis(propanoyl))bis(oxy))bis(methylene)bis(2-methylpropane-2,1,3-triyl) tetrakis(2-(4-ethylcyclohexyl)acetate)] | – | 100% | – | – | <340 ng/tissue | <340 ng/tissue
11 | CCCCC(C)(C)CC(=O)OCC(C)(COC(=O)CCN(CCC(=O)OCC(C)(COC(=O)CC(C)(C)CCCC)COC(=O)CC(C)(C)CCCC)C(=O)SCCCN(C)C)COC(=O)CC(C)(C)CCCC [LIPID 23] | – | 100% | – | – | <340 ng/tissue | <340 ng/tissue
12 | CCCCCCCC(=O)OCC(C)(COC(=O)CCCCCCC)COC(=O)CCN(CCC(=O)OCC(C)(COC(=O)CCCCCCC)COC(=O)CCCCCCC)C(=O)SCCCN(C)C [LIPID 24] | – | 100% | – | – | BLOQ | BLOQ
13 | CCCCCCCCC(=O)OCC(COC(=O)CCCCCCCC)COC(=O)CCCN(CCCC(=O)OCC(COC(=O)CCCCCCCC)COC(=O)CCCCCCCC)C(=O)SCCCN(C)C [LIPID 25, ((4,4′-((((3-(Dimethylamino)propyl)thio)carbonyl)azanediyl)bis(butanoyl))bis(oxy))bis(methylene))bis(propane-2,1,3-triyl) tetranonanoate] | – | 100% | – | – | BLOQ | BLOQ
14 | CCCCCCCCC(=O)OCC(COC(=O)CCCCCCCC)COC(=O)CCN(CCC(=O)OCC(COC(=O)CCCCCCCC)COC(=O)CCCCCCCC)C(=O)SCCN(C)C [LIPID 26, ((3,3′-((((2-(Dimethylamino)ethyl)thio)carbonyl)azanediyl)bis(propanoyl))bis(oxy))bis(methylene))bis(propane-2,1,3-triyl) tetranonanoate] | – | 100% | – | – | BLOQ | BLOQ
15 | CC1CCC(CCC(=O)OCC(COC(=O)CCC2CCC(C)CC2)COC(=O)CCN(CCC(=O)OCC(COC(=O)CCC2CCC(C)CC2)COC(=O)CCC2CCC(C)CC2)C(=O)SCCCN(C)C)CC1 (centres unmarked) [LIPID 27] | – | 100% | – | – | BLOQ | BLOQ
